Reference: patent publication US20250170132A1, “SALTS AND POLYMORPHIC FORMS OF MENIN INHIBITORS AND PHARMACEUTICAL COMPOSITIONS THEREOF” (Syndax Pharmaceuticals, Inc., priority 2023, published 2025)

How the values were obtained:
Assay type in all cases: physicochemical
[1] = Solution stability studies at accelerated conditions (counterion-related degradation; Impurity A formation vs temperature, pH, time)
Description: FIG. 32 depicts Impurity A formation as a function of temperature, pH, and time in solution.
Compound A monocitrate monohydrate has at least two advantageously and unexpected characteristics. Both alone and in comparison, with Compound A salts known in the art (e.g. Compound A fumarate salts). […] Second, in the manufacturing process, Compound A fumarate requires a separate slurrying step which results in a solvate with an organic solvent. Compound A monocitrate monohydrate salt is isolated directly from ethanol:water, no slurrying step is required. […] Additionally, the Compound A monocitrate forms a monohydrate instead of a solvate with one or more organic molecules.

[2] = Polymorph screen: anti-solvent addition
Description: (§1) X-ray powder diffraction (XRPD) • Instrument: Panalytical Empyrean • Parameters: X-Ray tube Cu (Kα radiation); Power: 45 kV×40 mA • Scanning range: 2 to 40 2θ (degree) • Step size: 0.01 degree • Scanning speed: 6.33 degree (20) per minute Thermogravimetric analysis (TGA) • Instrument: TA Instruments Discovery TGA • Parameters: Ramp 10° C. per minute, 25 to 300° C., 50 mL/min N2 sweep Differential scanning calorimetry (DSC) • Instrument: TA Instruments Discovery DSC • Parameters: Ramp 10° C. per minute, up to 300° C. Polarized light microscopy (PLM) • Instrument: Nikon Eclipse Ci POL • Camera: Nikon DS-Fi3 • Software: Nikon NIS Elements
Experiments using 10 different techniques including using techniques such as anti-solvent addition, solid vapor diffusion, liquid vapor diffusion, slurry (at RT and 50° C.), slow evaporation, polymer induced crystallization, thermal cycling, sonication, and wet grinding.
Obtained solids were tested by XRPD (Table 30).

[3] = Polymorph screen: polymer-induced crystallization
Description: as §1
The obtained solids were characterized by XRPD after 7-10 days (Table 36).

[4] = Approximate solubility estimation in 24 solvents; details: thermodynamic from solid
Description: About 10 mg of Compound A monocitrate monohydrate was weighed into a 4.0 mL vial and 25 μL of solvent was added at RT. The solution was shaken and stirred. If no clear solution was obtained, another 25 μL was added and this was repeated until 4.0 mL solvent is added.

CCN(C(=O)c1cc(F)ccc1Oc1cncnc1N1CC2(CCN(C[C@H]3CC[C@H](NS(=O)(=O)CC)CC3)CC2)C1)C(C)C [Compound A monocitrate monohydrate]
reaction of counterion with the pyrimidine ring of Compound A (degradation) [1]: does not react with the pyrimidine ring of Compound A
Crystal Form ([2]; solvent DMA, antisolvent CPME): Form A
Crystal Form ([2]; solvent DMA, antisolvent EtOAc): Form A
Crystal Form ([2]; solvent DMA, antisolvent Toluene): Form A
Crystal Form ([2]; solvent DMSO, antisolvent Benzene, *Loss of crystallinity): Form A*
Crystal Form ([2]; solvent NMP, antisolvent IPAc): Form A
Crystal Form ([3]; polymer Brij, NMP:H2O 1:9, 40° C.): Amorphous
Crystal Form ([3]; polymer PVC, DMF:DCM 1:9, RT): Form A
Crystal Form ([3]; polymer PVP, DMA:H2O 1:9, 40° C.): Form A
Crystal Form ([3]; polymer PVP, NMP:H2O 1:9, 40° C.): Form A
solubility ([4]; aqueous with cosolvent or surfactant or cyclodextrin, 1,4-dioxane/water (7/3), heated for few seconds using heat gun): 84 to 105 mg/mL
solubility ([4]; aqueous with cosolvent or surfactant or cyclodextrin, 1-PrOH/water (1/1), heated for few seconds using heat gun): 161 to 242 mg/mL
solubility ([4]; aqueous with cosolvent or surfactant or cyclodextrin, Acetone/H2O (9:1 v/v), RT): 15 to 17.5 mg/mL
solubility ([4]; aqueous with cosolvent or surfactant or cyclodextrin, MeOH/water (7/3), heated for few seconds using heat gun): 93 to 186 mg/mL
solubility ([4]; aqueous with cosolvent or surfactant or cyclodextrin, THF/water (1/1), heated for few seconds using heat gun): 141 to 212 mg/mL
solubility ([4]; organic solvent or mixture, 2-MeTHF, RT): < 2.9 mg/mL
solubility ([4]; organic solvent or mixture, Anisole, RT): < 3 mg/mL
solubility ([4]; organic solvent or mixture, Benzene, RT): < 2.9 mg/mL
solubility ([4]; organic solvent or mixture, CPME, RT): < 2.1 mg/mL
solubility ([4]; organic solvent or mixture, Chloroform, RT): < 2.3 mg/mL
solubility ([4]; organic solvent or mixture, Cyclohexane, RT): < 2.3 mg/mL
solubility ([4]; organic solvent or mixture, DMA, RT): 81 to 162 mg/mL
solubility ([4]; organic solvent or mixture, DMF, RT): 80 to 160 mg/mL
solubility ([4]; organic solvent or mixture, Diethylamine, RT): 170 to 340 mg/mL
solubility ([4]; organic solvent or mixture, Diisopropyl ether, RT): < 2.3 mg/mL
solubility ([4]; organic solvent or mixture, Dimethoxyethane (DME), RT): < 2.4 mg/mL
solubility ([4]; organic solvent or mixture, EtOAc, RT): < 2.3 mg/mL
solubility ([4]; organic solvent or mixture, Heptane, RT): < 2.8 mg/mL
solubility ([4]; organic solvent or mixture, IPA, RT): < 2.8 mg/mL
solubility ([4]; organic solvent or mixture, MEK, RT): < 2.4 mg/mL
solubility ([4]; organic solvent or mixture, MTBE, RT): < 2.8 mg/mL
solubility ([4]; organic solvent or mixture, NMP, RT): 120 to 240 mg/mL
solubility ([4]; organic solvent or mixture, Propylene glycol, heated for few seconds using heat gun): 22.2 to 27.8 mg/mL
solubility ([4]; organic solvent or mixture, THF, RT): < 2 mg/mL
